Entries after “also recorded” stand apart in the source; their conditions may differ.
What was measured:
[1] = system: bone-marrow-derived macrophages (BMDM); type: cell-based, mouse; conditions: 24 hours incubation
TLR7 = molecular target: T1, TLR7 (Homo sapiens, UniProt Q9NYK1); assay: TLR transformants, TLR7 agonist specificity and potency; type: cell-based
T1 construct: expressed in transfected cells
T1 sequence (Q9NYK1 27-1049): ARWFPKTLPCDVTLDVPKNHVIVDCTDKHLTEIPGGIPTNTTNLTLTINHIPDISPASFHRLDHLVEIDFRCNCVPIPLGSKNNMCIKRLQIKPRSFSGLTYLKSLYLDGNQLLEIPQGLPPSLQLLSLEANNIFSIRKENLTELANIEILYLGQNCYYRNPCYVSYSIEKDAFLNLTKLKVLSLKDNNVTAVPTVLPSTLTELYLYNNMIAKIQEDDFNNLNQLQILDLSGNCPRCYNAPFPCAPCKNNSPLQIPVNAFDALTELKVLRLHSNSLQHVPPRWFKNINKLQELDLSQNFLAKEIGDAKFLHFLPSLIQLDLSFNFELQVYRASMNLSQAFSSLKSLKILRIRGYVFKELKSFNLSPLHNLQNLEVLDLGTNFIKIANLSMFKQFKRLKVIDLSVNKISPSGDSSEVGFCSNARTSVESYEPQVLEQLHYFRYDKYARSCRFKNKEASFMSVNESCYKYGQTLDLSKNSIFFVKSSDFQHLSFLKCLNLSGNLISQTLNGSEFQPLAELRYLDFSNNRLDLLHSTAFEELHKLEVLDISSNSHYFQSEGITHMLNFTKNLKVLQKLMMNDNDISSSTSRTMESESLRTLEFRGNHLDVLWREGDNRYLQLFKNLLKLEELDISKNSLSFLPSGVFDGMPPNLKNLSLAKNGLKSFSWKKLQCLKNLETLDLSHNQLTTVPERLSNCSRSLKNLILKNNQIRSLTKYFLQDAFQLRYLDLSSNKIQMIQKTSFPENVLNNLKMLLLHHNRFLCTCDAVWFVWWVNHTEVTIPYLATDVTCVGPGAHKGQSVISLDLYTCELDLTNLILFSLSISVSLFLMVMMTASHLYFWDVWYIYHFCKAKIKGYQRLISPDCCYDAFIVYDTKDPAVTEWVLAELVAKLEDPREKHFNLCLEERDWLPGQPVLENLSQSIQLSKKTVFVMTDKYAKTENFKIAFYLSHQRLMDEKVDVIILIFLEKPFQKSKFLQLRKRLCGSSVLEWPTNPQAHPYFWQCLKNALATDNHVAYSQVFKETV

[2] = parameters: species or system C57BL/6 mice; conditions: mouse, in vivo
[3] = parameters: species or system C57BL/6 mice; conditions: mouse, in vivo, iv
B. anthracis = system: B. anthracis; parameters: species or system A/J mice; conditions: mouse, in vivo
anthrax infection = conditions: in vivo
[4] = system: B16 melanoma tumor cells expressing the cOVA transgene; parameters: species or system C57/B1 mice; conditions: mouse, in vivo

COCCOc1nc(N)c2nc(O)n(Cc3ccc(C=O)cc3)c2n1 [UC-1V150, 4-[6-amino-8-hydroxy-2-(2-methoxyethoxy)purin-9-ylmethyl]benzaldehyde]
cytokine release / activation of BMDM [1]: stimulated cytokine release; also recorded: active at nanomolar concentrations | TLR specificity (TLR7): specific TLR7 agonist | cytokine production in the BALF [2]: induced selective cytokine production | time of peak serum cytokine levels [3]: about 2 hours | effect on survival / protection (B. anthracis): no significant difference; also recorded: failed to protect

O=C(O)c1cn(C2CC2)c2cc(N3CCNCC3)c(F)cc2c1=O [ciprofloxacin]
survival (anthrax infection): 15-25%

chicken ovalbumin: antigen alone, comparator
median survival [4]: 22 days
